Data as given in US20230416329A1, “A PEPTIDE WITH DISULFIDE BONDS AND INHIBITORY ACTIVITY AGAINST SERINE PROTEASES, DERIVED HYBRID PEPTIDES THEREOF, AND USES THEREOF” (INSTITUTE OF MATERIA MEDICA , CHINESE ACADEMY OF MEDICAL …, priority 2020, published 2023).
Each block holds one compound with its values, some of them ahead of it. Bridge positions count the residues as written; N and C are the ends. Square brackets hold non-standard residues; d marks the D form. Peptide text beside a SMILES is read from it. Hyp = O=C(O)[C@@H]1C[C@@H](O)CN1; hCys = N[C@@H](CCS)C(=O)O

Target: T1, bovine trypsin (Bos taurus, UniProt P00760)
T1 sequence (P00760 24-246): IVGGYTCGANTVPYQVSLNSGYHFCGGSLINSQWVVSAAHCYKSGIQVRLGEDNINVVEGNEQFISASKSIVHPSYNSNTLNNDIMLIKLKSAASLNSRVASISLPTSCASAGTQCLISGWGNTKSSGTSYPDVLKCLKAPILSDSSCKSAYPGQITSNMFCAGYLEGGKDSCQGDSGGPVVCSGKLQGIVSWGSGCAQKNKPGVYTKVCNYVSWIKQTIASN
Test: Trypsin inhibitory activity of peptides (BApNA hydrolysis, OD405; IC50, Ki, residual activity)
Format: biochemical
Settings: for IC50: trypsin 50 nM, BApNA 1.22 mM, read-out: IC50
Procedure, shortened: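 Trypsin (50 nM final) preincubated with peptides at 37 °C in 50 mM Tris-HCl pH 7.8, 20 mM CaCl2; BApNA added (1.22 mM final), 260 min at 37 °C, then OD405 read. Residual activity from enzyme-only and substrate-only controls; IC50 fitted and converted to Ki via Ki=IC50/(1+S/Km), Km measured separately for BApNA.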

SMILES: CC[C@H](C)[C@@H]1NC(=O)[C@@H]2CCCN2C(=O)[C@@H]2CCCN2C(=O)[C@H]([C@@H](C)CC)NC(=O)[C@H](CO)NC(=O)[C@H](CCCCN)NC(=O)[C@H]([C@@H](C)O)NC(=O)[C@H](C)NC(=O)[C@H](CCCNC(=N)N)NC(=O)CNC(=O)[C@@H](N)CCSSCC[C@@H](C(=O)O)NC(=O)[C@H](Cc2ccccc2)NC(=O)[C@H](C)NC1=O [BT29] (H-[hCys]GRATKSIPPIAF[hCys]-OH; disulfide 1-14; N-terminus assumed)
inhibitory activity against trypsin (in words): still maintained good inhibitory activity against trypsin

IC50: > 50 µM
SMILES: CC[C@H](C)[C@@H]1NC(=O)[C@@H]2CCCN2C(=O)[C@@H]2CCCN2C(=O)[C@H]([C@@H](C)CC)NC(=O)[C@H](CO)NC(=O)[C@H](CCCCN)NC(=O)[C@H]([C@@H](C)O)NC(=O)[C@H](C)NC(=O)[C@H](CCCNC(=N)N)NC(=O)CNC(=O)[C@@H](N)CSSC[C@@H](C(=O)O)NC(=O)[C@H](Cc2ccccc2)NC1=O [BT30] (H-CGRATKSIPPIFC-OH; disulfide 1-13 (inferred); N-terminus and C-terminus assumed)

IC50: > 50 µM
SMILES: CC[C@H](C)[C@@H]1NC(=O)[C@H](CO)NC(=O)[C@H](CCCCN)NC(=O)[C@H]([C@@H](C)O)NC(=O)[C@H](C)NC(=O)[C@H](CCCNC(=N)N)NC(=O)CNC(=O)[C@@H](N)CSSC[C@@H](C(=O)O)NC(=O)[C@H](Cc2ccccc2)NC(=O)[C@H](C)NC(=O)[C@@H]2CCCN2C(=O)[C@@H]2CCCN2C1=O [BT31] (H-CGRATKSIPPAFC-OH; disulfide 1-13 (inferred); N-terminus and C-terminus assumed)

SMILES: CC[C@H](C)[C@@H]1NC(=O)[C@@H]2CCCN2C(=O)[C@@H]2CCCN2C(=O)[C@H]([C@@H](C)CC)NC(=O)[C@H](CO)NC(=O)[C@H](CCCCN)NC(=O)[C@H]([C@@H](C)O)NC(=O)[C@H](C)NC(=O)[C@H](CCCNC(=N)N)NC(=O)CNC(=O)[C@@H](N)CSSC[C@@H](C(=O)O)NC(=O)CNC(=O)[C@H](Cc2ccccc2)NC(=O)[C@H](C)NC1=O [BT32] (H-CGRATKSIPPIAFGC-OH; disulfide 1-15; N-terminus and C-terminus assumed)
inhibitory activity against trypsin (in words): still maintained good inhibitory activity against trypsin

SMILES: CC[C@H](C)[C@@H]1NC(=O)[C@@H]2CCCN2C(=O)[C@@H]2CCCN2C(=O)[C@H]([C@@H](C)CC)NC(=O)[C@H](CO)NC(=O)[C@H](CCCCN)NC(=O)[C@H]([C@@H](C)O)NC(=O)[C@H](C)NC(=O)[C@H](CCCNC(=N)N)NC(=O)CNC(=O)[C@@H](N)CCSSCC[C@@H](C(=O)O)NC(=O)CNC(=O)[C@H](Cc2ccccc2)NC(=O)[C@H](C)NC1=O [BT33] (H-[hCys]GRATKSIPPIAFG[hCys]-OH; disulfide 1-15; N-terminus assumed)
inhibitory activity against trypsin (in words): still maintained good inhibitory activity against trypsin

IC50: > 50 µM
SMILES: CC[C@H](C)[C@@H]1NC(=O)[C@H](CO)NC(=O)[C@H](CCCCN)NC(=O)[C@H]([C@@H](C)O)NC(=O)[C@H](C)NC(=O)[C@H](CCCNC(=N)N)NC(=O)CNC(=O)[C@@H](N)CSSC[C@@H](C(=O)O)NC(=O)[C@H](CCCNC(=N)N)NC(=O)[C@H](C)NC(=O)[C@H](CCC(N)=O)NC(=O)[C@@H]2CCCN2C(=O)[C@@H]2CCCN2C1=O [BT34] (H-CGRATKSIPPQARC-OH; disulfide 1-14)

IC50: > 50 µM
SMILES: CC[C@H](C)[C@@H]1NC(=O)[C@H](CO)NC(=O)[C@H](CCCCN)NC(=O)[C@H]([C@@H](C)O)NC(=O)[C@H](Cc2c[nH]c3ccccc23)NC(=O)CNC(=O)[C@@H](N)CSSC[C@@H](C(=O)O)NC(=O)[C@@H]2CCCN2C(=O)[C@H](CCCCN)NC(=O)[C@@H]2CCCN2C(=O)[C@@H]2CCCN2C1=O [BT37] (H-CGWTKSIPPKPC-OH; disulfide 1-12)

IC50: > 50 µM
SMILES: CC[C@H](C)[C@@H]1NC(=O)[C@H](CO)NC(=O)[C@H](CCCCN)NC(=O)[C@H]([C@@H](C)O)NC(=O)[C@H](Cc2c[nH]c3ccccc23)NC(=O)[C@H](CCCNC(=N)N)NC(=O)CNC(=O)[C@@H](N)CSSC[C@@H](C(=O)O)NC(=O)[C@@H]2CCCN2C(=O)[C@H](CCCCN)NC(=O)[C@@H]2CCCN2C(=O)[C@@H]2CCCN2C1=O [BT38] (H-CGRWTKSIPPKPC-OH; disulfide 1-13 (inferred); N-terminus and C-terminus assumed)

IC50: > 50 µM
SMILES: CC[C@H](C)[C@@H]1NC(=O)[C@H](CO)NC(=O)[C@H](CCCCN)NC(=O)[C@H]([C@@H](C)O)NC(=O)[C@H](Cc2c[nH]c3ccccc23)NC(=O)[C@H](CCCNC(=N)N)NC(=O)CNC(=O)[C@@H](N)CSSC[C@@H](C(=O)O)NC(=O)[C@H](Cc2ccccc2)NC(=O)[C@H](C)NC(=O)[C@@H]2CCCN2C(=O)[C@@H]2CCCN2C1=O [BT39] (H-CGRWTKSIPPAFC-OH; disulfide 1-13 (inferred); N-terminus and C-terminus assumed)

IC50: > 50 µM
SMILES: CC[C@H](C)[C@@H]1NC(=O)[C@@H]2CCCN2C(=O)[C@@H]2CCCN2C(=O)[C@H]([C@@H](C)CC)NC(=O)[C@H](CO)NC(=O)[C@H](CCCCN)NC(=O)[C@H]([C@@H](C)O)NC(=O)[C@H](Cc2c[nH]c3ccccc23)NC(=O)[C@H](CCCNC(=N)N)NC(=O)CNC(=O)[C@@H](N)CSSC[C@@H](C(=O)O)NC(=O)[C@H](Cc2ccccc2)NC1=O [BT40] (H-CGRWTKSIPPIFC-OH; disulfide 1-13 (inferred); N-terminus and C-terminus assumed)

IC50: > 50 µM
SMILES: CC[C@H](C)[C@@H]1NC(=O)[C@H](CCCCN)NC(=O)[C@@H]2CCCN2C(=O)[C@@H](NC(=O)[C@H](CCCNC(=N)N)NC(=O)CN)CSSC[C@@H](C(=O)N[C@@H](Cc2ccccc2)C(=O)O)NC(=O)[C@H](CCCCN)NC(=O)[C@H](CCCCN)NC(=O)[C@H](CC(C)C)NC1=O [BT41] (H-GRCPKILKKCF-OH; disulfide 3-10)

IC50: > 50 µM
SMILES: CC[C@H](C)[C@@H]1NC(=O)[C@H](CCCCN)NC(=O)[C@@H]2CCCN2C(=O)[C@H](C)NC(=O)[C@H](CCCNC(=N)N)NC(=O)CNC(=O)[C@@H](N)CSSC[C@@H](C(=O)N[C@@H](Cc2ccccc2)C(=O)O)NC(=O)[C@H](CCCCN)NC(=O)[C@H](CCCCN)NC(=O)[C@H](CC(C)C)NC1=O [BT42] (H-CGRAPKILKKCF-OH; disulfide 1-11)

IC50: > 50 µM
SMILES: CC[C@H](C)[C@@H]1NC(=O)[C@H](CCCCN)NC(=O)[C@@H]2CCCN2C(=O)[C@@H](NC(=O)[C@H](CCCNC(=N)N)NC(=O)CN)CSSC[C@@H](C(=O)N[C@@H](Cc2ccccc2)C(=O)O)NC(=O)[C@H](CCCNC(=N)N)NC(=O)[C@H](CCC(N)=O)NC(=O)[C@H](CC(C)C)NC1=O [BT43] (H-GRCPKILQRCF-OH; disulfide 3-10)

IC50: > 50 µM
SMILES: CC[C@H](C)[C@@H]1NC(=O)[C@H](CCCCN)NC(=O)[C@@H]2CCCN2C(=O)[C@H](C)NC(=O)[C@H](CCCNC(=N)N)NC(=O)CNC(=O)[C@@H](N)CSSC[C@@H](C(=O)N[C@@H](Cc2ccccc2)C(=O)O)NC(=O)[C@H](CCCNC(=N)N)NC(=O)[C@H](CCC(N)=O)NC(=O)[C@H](CC(C)C)NC1=O [BT44] (H-CGRAPKILQRCF-OH; disulfide 1-11 (inferred); N-terminus and C-terminus assumed)

Residual trypsin activity (peptide 0.000098 μM): 99.3 ± 5.3% | Residual trypsin activity (peptide 0.00098 μM): 104.3 ± 6.0% | Residual trypsin activity (peptide 0.0098 μM): 100.7 ± 5.0% | Residual trypsin activity (peptide 0.02439 μM): 67.4 ± 2.6% | Residual trypsin activity (peptide 0.0390 μM): 42.7 ± 2.9% | Residual trypsin activity (peptide 0.0488 μM): 27.3 ± 5.5% | Residual trypsin activity (peptide 0.07317 μM): 10.8 ± 1.6% | Residual trypsin activity (peptide 0.098 μM): 6.3 ± 0.4% | Residual trypsin activity (peptide 0.98 μM): 0.4 ± 0.0% | Residual trypsin activity (peptide 9.76 μM): 0.0 ± 0.0% | IC50: 0.03 µM
SMILES: CC[C@H](C)[C@@H]1NC(=O)[C@@H]2CCCN2C(=O)[C@@H]2CCCN2C(=O)[C@H]([C@@H](C)CC)NC(=O)[C@H](CO)NC(=O)[C@H](CCCCN)NC(=O)[C@H]([C@@H](C)O)NC(=O)[C@@H](NC(=O)[C@@H](N)CCCNC(=N)N)CSSC[C@@H](C(=O)N[C@@H](Cc2ccccc2)C(=O)O)NC1=O [BT45] (H-RCTKSIPPICF-OH; disulfide 2-10; C-terminus assumed)

inhibitory activity against trypsin (in words): excellent trypsin inhibitory activities | Ki (Ki=IC50/(1+S/Km), Km 0.33 mM, read-out: Ki): 10 nM | IC50: 0.07 µM
SMILES: CC[C@H](C)[C@@H]1NC(=O)[C@@H]2CCCN2C(=O)[C@@H]2CCCN2C(=O)[C@H]([C@@H](C)CC)NC(=O)[C@H](CO)NC(=O)[C@H](CCCCN)NC(=O)[C@H]([C@@H](C)O)NC(=O)[C@H](C)NC(=O)[C@H](CCCNC(=N)N)NC(=O)[C@@H]2C[C@@H](O)CN2C(=O)[C@@H](N)CSSC[C@@H](C(=O)N[C@@H](Cc2ccccc2)C(=O)O)NC1=O [BT46] (H-C[Hyp]RATKSIPPICF-OH; disulfide 1-12; C-terminus assumed)
